Experimental data reported in patent publication US20240327852A1, “METHODS OF TRANSFORMATION” (SYNGENTA CROP PROTECTION AG, priority 2019, published 2024).

Tests used:
Type in all cases: in vivo
[1] = system: soybean (Glycine max) explants; experiment: Semi-in-planta soybean transformation, greenhouse bensulfuron-methyl selection for ALS marker, Taqman assay of recovered shoots; settings: for Escape rate / Number of events / TF: 3 weeks greenhouse selection
Protocol: (§1) Sterilized mature soybean (Glycine max) seeds were used. Prior to Agrobacterium inoculation, seeds were soaked in sterilized H2O or liquid medium Soy1 for overnight (12-18 hours) at 22-24° C. Liquid medium Soy 1 contains 3.1 g/L Gamborg's B5 basal medium and 2 mg/L BAP
(§2) The seed coat was removed from the soaked seed. One of the cotyledons and both primary leaves were carefully removed and discarded. Next, the region containing the epicotyl, apical meristem and the cotyledonary node were wounded by making several cuts with the sharp end of scalpel blade.
(§3) Agrobacterium tumefaciens strain [Chry5d3 recA−] was used. The Agrobacterium harbored a binary vector containing a selectable marker and gene of interest, specifically construct 23093 containing EPSPS selectable marker driven by translation elongation factor EF-1 alpha/Tu promoter and AmCyan gene driven by Cestrum Yellow leaf curl virus promoter (prCMP), construct18891 containing codon-optimized Acetolactate synthase (ALS) double mutant (P191A, W568L) from Nicotiana tabacum for soybean and AmCyan gene driven by prCMP, and construct 22296 containing codon-optimized Acetolactate synthase (ALS) double mutant (P191A, W568L) from Nicotiana tabacum for soybean driven by translation elongation factor EF-1 alpha/Tu promoter, including the first intron and neighboring 5′-UTR, from soybean (Williams 82) prGmEF-02. Agrobacterium culture was streaked from −80° C. from glycerol stock onto YP plates containing 100 mg/L ampicillin and 500 mg/L spectinomycin appropriate antibiotics and grown in a 23° C. incubator. Before inoculation with explants, Agrobacterium cells were collected from the plate and were uniformly suspended in liquid infection medium SoyInf in a sterile disposable 50 ml centrifuge tube and diluted to OD A660 of approximately 0.3 to 0.6. A final concentration of 40-80 mg/L (200-400 uM) acetosyringone was added to induce virulence gene expression. Dithiothreitol (DTT) was added to a final concentration of 150 μg/ml. SoyInf contains 1.1 g/L MS basal salt mixture, 20 g/L sucrose, 10 g/L glucose, 4 g/L MES, 1 ml/L Gamborg's B5 vitamins (1000×) and 2 mg/L zeatin riboside.
(§4) The wounded explants were immediately infected with Agrobacterium by immersing them with the Agrobacterium suspension, and then incubated for 18 hours in dark at room temperature. After infection, the explants were removed from the Agrobacterium suspension and transferred to petri dishes for co-cultivation in an airtight plastic container. The co-cultivation plates were incubated for 3-5 days at 22±1° C. in the dark, with explants placed adaxial side up.
(§5) The explants were transplanted to soil for further selection and development of transgenic shoots after immersed in Soy2 medium for 2 day and in Soy2 medium with 2 μM bensulfuron-methyl for 5 days. The selection is performed for three weeks in GH by application with various concentrations of bensulfuron-methyl using mounted cotton ball or daily liquid spay methods. The recovered shoots from each treatment were subjected for Taqman assay to confirm the transgenic frequency. The application solution contains bensulfuron-methyl, 1 g/L MES and BAP (2 mg./L for first week, and 1 mg/L for second and third weeks, or 2 mg/L or 1 mg/l for three weeks). Alternatively, the transplanted explants in soil can be directly spayed with selection solution containing commercial herbicide Ecomazayr (1-8 μM isopropylamine salt of imazapyr), 1-2 mg/L BAP and 1 g/L MES for 3 weeks.
To obtain an optimal selection conditions and methods for ALS selection, a side-by-side comparison experiment was conducted. Transgenic events can be recovered without selection in Greenhouse at more than 18% transformation frequency with 73% escape rate. […] By using cotton ball method for application of bensulfuron-methyl, high transformation frequency (˜40%) with high single copy event rate (50%) was obtained. […]

[2] = system: soybean (Glycine max) explants; experiment: Comparison of greenhouse selection effectiveness between BSU and Ecomazayr for ALS selectable marker
Protocol: as §5
An experiment was conducted to compare the selection effectiveness in greenhouse between BSU and commercial herbicide Ecomazayr for ALS selectable marker using current transformation method.

[3] = system: soybean (Glycine max) explants; experiment: Semi-in-planta soybean transformation, greenhouse glyphosate selection for EPSPS marker, Taqman assay of recovered shoots; settings: 3 weeks greenhouse selection, 48 explants
Protocol: as §1, §2, §3, §4
After 2 day in Soy2 medium and 5 days in Soy2 medium with 100 μM glyphosate, the explants were transplanted to soil for further selection and development of transgenic shoots. The selection is performed for three weeks in GH by application with various concentrations of glyphosate using mounted cotton ball or daily liquid spay methods. The recovered shoots from each treatment were subjected for Taqman assay to confirm the transgenic frequency. The application solution contains glyphosate, 1 g/L MES and BAP (2 mg./L for first week, and 1 mg/L for second and third weeks, or 2 mg/L or 1 mg/l for three weeks).
To obtain an optimal selection conditions and methods for EPSPS selection, a side-by-side comparison experiment was conducted. Transgenic events can be recovered without selection in Greenhouse at 18% transformation frequency with more than 80% escape rate. […] Similar results can also be achieved by daily spay of 150 μM or more of glyphosate with few escapes.

[4] = cotton ball, 3 μM bensulfuron-methyl, 40 explants
[5] = cotton ball, 6 μM bensulfuron-methyl, 48 explants
[6] = cotton ball, 9 μM bensulfuron-methyl, 48 explants
[7] = daily spray, 3 μM bensulfuron-methyl, 48 explants
[8] = daily spray, 4 μM bensulfuron-methyl, 48 explants
[9] = daily spray, 5 μM bensulfuron-methyl, 48 explants
[10] = daily spray, 6 μM bensulfuron-methyl, 48 explants
[11] = daily spray, 7 μM bensulfuron-methyl, 48 explants
[12] = daily spray, 8 μM bensulfuron-methyl, 48 explants
[13] = daily spray, 9 μM bensulfuron-methyl, 48 explants
[14] = daily spray, 10 μM bensulfuron-methyl, 48 explants
[15] = greenhouse selection 3 μM BSU, 56 explants
[16] = greenhouse selection 1 μM imazapyr, 56 explants
[17] = greenhouse selection 2 μM imazapyr, 56 explants
[18] = greenhouse selection 3 μM imazapyr, 56 explants
[19] = greenhouse selection 4 μM imazapyr, 56 explants
[20] = greenhouse selection 5 μM imazapyr, 56 explants
[21] = greenhouse selection 6 μM imazapyr, 56 explants
[22] = greenhouse selection 7 μM imazapyr, 52 explants
[23] = greenhouse selection 8 μM imazapyr, 54 explants

Q: Which escape events recovered ([1]; 3 μM or higher concentrations of bensulfuron-methyl) does the source give for COC(=O)c1ccccc1CS(=O)(=O)NC(=O)Nc1nc(OC)cc(OC)n1 [bensulfuron-methyl] here?
A: No escape event

Q: What about the Escape rate [1, 4] of the same compound?
A: 0.0%

Q: What about the Number of events [1, 4] of the same compound?
A: 16

Q: What about the TF [1, 4] of the same compound?
A: 40.0%

Q: And the Escape rate [1, 5]?
A: 0.0%

Q: What about the Number of events [1, 5] of the same compound?
A: 13

Q: What about the TF [1, 5] of the same compound?
A: 27.1%

Q: What about the Escape rate [1, 6] of the same compound?
A: 0.0%

Q: What about the Number of events [1, 6] of the same compound?
A: 9

Q: What about the TF [1, 6] of the same compound?
A: 18.8%

Q: What about the Escape rate [1, 7] of the same compound?
A: 0.0%

Q: What about the Number of events [1, 7] of the same compound?
A: 18

Q: What about the TF [1, 7] of the same compound?
A: 37.5%

Q: What about the Escape rate [1, 8] of the same compound?
A: 0.0%

Q: What about the Number of events [1, 8] of the same compound?
A: 10

Q: And the TF [1, 8]?
A: 20.8%

Q: What about the Escape rate [1, 9] of the same compound?
A: 0.0%

Q: And the Number of events [1, 9]?
A: 10

Q: And the TF [1, 9]?
A: 20.8%

Q: What about the Escape rate [1, 10] of the same compound?
A: 0.0%

Q: And the Number of events [1, 10]?
A: 10

Q: What about the TF [1, 10] of the same compound?
A: 20.8%

Q: And the Escape rate [1, 11]?
A: 0.0%

Q: What about the Number of events [1, 11] of the same compound?
A: 6

Q: And the TF [1, 11]?
A: 12.5%

Q: What about the Escape rate [1, 12] of the same compound?
A: 0.0%

Q: What about the Number of events [1, 12] of the same compound?
A: 11

Q: What about the TF [1, 12] of the same compound?
A: 22.9%

Q: And the Escape rate [1, 13]?
A: 0.0%

Q: What about the Number of events [1, 13] of the same compound?
A: 12

Q: And the TF [1, 13]?
A: 25.0%

Q: What about the Escape rate [1, 14] of the same compound?
A: 0.0%

Q: And the Number of events [1, 14]?
A: 8

Q: And the TF [1, 14]?
A: 16.7%

Q: What about the Number of escapes [2, 15] of the same compound?
A: 0

Q: And the Number of events [2, 15]?
A: 12

Q: And the “Transformation frequency (%)” value [2, 15]?
A: 21.4%

Q: O=C(O)CNCP(=O)(O)O [glyphosate] was tested. Which Escape rate ([3]; cotton ball, 100 μM glyphosate) did it give?
A: 2.1%

Q: And the Number of events ([3]; cotton ball, 100 μM glyphosate)?
A: 16

Q: And the “Transformation Frequency” value ([3]; cotton ball, 100 μM glyphosate)?
A: 33.3%

Q: And the Escape rate ([3]; cotton ball, 125 μM glyphosate)?
A: 0.0%

Q: What about the Number of events ([3]; cotton ball, 125 μM glyphosate) of the same compound?
A: 25

Q: What about the “Transformation Frequency” value ([3]; cotton ball, 125 μM glyphosate) of the same compound?
A: 52.1%

Q: And the Escape rate ([3]; cotton ball, 150 μM glyphosate)?
A: 0.0%

Q: What about the Number of events ([3]; cotton ball, 150 μM glyphosate) of the same compound?
A: 24

Q: And the “Transformation Frequency” value ([3]; cotton ball, 150 μM glyphosate)?
A: 50.0%

Q: What about the Number of events ([3]; cotton ball, 175 μM glyphosate) of the same compound?
A: 23

Q: And the “Transformation Frequency” value ([3]; cotton ball, 175 μM glyphosate)?
A: 47.9%

Q: What about the Escape rate ([3]; daily spray, 100 μM glyphosate) of the same compound?
A: 2.1%

Q: What about the Number of events ([3]; daily spray, 100 μM glyphosate) of the same compound?
A: 11

Q: And the “Transformation Frequency” value ([3]; daily spray, 100 μM glyphosate)?
A: 22.9%

Q: What about the Escape rate ([3]; daily spray, 125 μM glyphosate) of the same compound?
A: 6.3%

Q: And the Number of events ([3]; daily spray, 125 μM glyphosate)?
A: 13

Q: And the “Transformation Frequency” value ([3]; daily spray, 125 μM glyphosate)?
A: 27.1%

Q: And the Escape rate ([3]; daily spray, 150 μM glyphosate)?
A: 2.1%

Q: And the Number of events ([3]; daily spray, 150 μM glyphosate)?
A: 20

Q: What about the “Transformation Frequency” value ([3]; daily spray, 150 μM glyphosate) of the same compound?
A: 41.7%

Q: What about the Escape rate ([3]; daily spray, 175 μM glyphosate) of the same compound?
A: 6.3%

Q: What about the Number of events ([3]; daily spray, 175 μM glyphosate) of the same compound?
A: 22

Q: What about the “Transformation Frequency” value ([3]; daily spray, 175 μM glyphosate) of the same compound?
A: 45.8%

Q: What about the Escape rate ([3]; daily spray, 200 μM glyphosate) of the same compound?
A: 6.3%

Q: And the Number of events ([3]; daily spray, 200 μM glyphosate)?
A: 20

Q: And the “Transformation Frequency” value ([3]; daily spray, 200 μM glyphosate)?
A: 41.7%

Q: And the Escape rate ([3]; daily spray, 250 μM glyphosate)?
A: 4.2%

Q: What about the Number of events ([3]; daily spray, 250 μM glyphosate) of the same compound?
A: 15

Q: What about the “Transformation Frequency” value ([3]; daily spray, 250 μM glyphosate) of the same compound?
A: 31.3%

Q: And the Escape rate ([3]; daily spray, 300 μM glyphosate)?
A: 2.1%

Q: What about the Number of events ([3]; daily spray, 300 μM glyphosate) of the same compound?
A: 23

Q: And the “Transformation Frequency” value ([3]; daily spray, 300 μM glyphosate)?
A: 47.9%

Q: With CC(C)C1(C)N=C(c2ncccc2C(=O)O)NC1=O (stereo not shown) [imazapyr] as the compound, how does the “selection effectiveness in greenhouse” value ([2]; ALS selectable marker, recovery of ALS transgenic plants) read?
A: as effective as BSU

Q: What about the Number of escapes [2, 16] of the same compound?
A: 1

Q: And the Number of events [2, 16]?
A: 15

Q: What about the “Transformation frequency (%)” value [2, 16] of the same compound?
A: 26.8%

Q: What about the Number of escapes [2, 17] of the same compound?
A: 0

Q: What about the Number of events [2, 17] of the same compound?
A: 12

Q: What about the “Transformation frequency (%)” value [2, 17] of the same compound?
A: 21.4%

Q: What about the Number of escapes [2, 18] of the same compound?
A: 0

Q: And the Number of events [2, 18]?
A: 20

Q: And the “Transformation frequency (%)” value [2, 18]?
A: 35.7%

Q: What about the Number of escapes [2, 19] of the same compound?
A: 0

Q: And the Number of events [2, 19]?
A: 14

Q: What about the “Transformation frequency (%)” value [2, 19] of the same compound?
A: 25.0%

Q: And the Number of escapes [2, 20]?
A: 0

Q: And the Number of events [2, 20]?
A: 8

Q: And the “Transformation frequency (%)” value [2, 20]?
A: 14.3%

Q: And the Number of escapes [2, 21]?
A: 0

Q: What about the Number of events [2, 21] of the same compound?
A: 10

Q: And the “Transformation frequency (%)” value [2, 21]?
A: 17.9%

Q: What about the Number of escapes [2, 22] of the same compound?
A: 0

Q: What about the Number of events [2, 22] of the same compound?
A: 10

Q: What about the “Transformation frequency (%)” value [2, 22] of the same compound?
A: 19.2%

Q: And the Number of escapes [2, 23]?
A: 0

Q: What about the Number of events [2, 23] of the same compound?
A: 10

Q: And the “Transformation frequency (%)” value [2, 23]?
A: 18.5%
